{"source": "paper PMC9118179", "about": "“Ginkgolic acid and anacardic acid are reversible inhibitors of SARS-CoV-2 3-chymotrypsin-like protease” (Cell & Bioscience, 2022)", "key": {"SARS-CoV-2 3CL^pro [1]": {"biological_target": "T1, SARS-CoV-2 3CL^pro (Severe acute respiratory syndrome coronavirus 2, UniProt P0DTD1)", "T1 construct": "gene rep", "experiment": "FRET protease assay, Lineweaver-Burk secondary plot", "type": "biochemical"}, "SARS-CoV-2 3CL^pro [2]": {"biological_target": "T1, SARS-CoV-2 3CL^pro", "experiment": "FRET protease assay", "type": "biochemical"}}, "data": [{"smiles": "CCCCCCCCCCCCCCCc1cccc(O)c1C(=O)O", "note": "[AA, anacardic acid]", "values": [{"measurement": "Ki", "setting": "SARS-CoV-2 3CL^pro [1]", "result": 1.87, "unit": "µM"}, {"measurement": "IC50", "setting": "SARS-CoV-2 3CL^pro [2]", "result": "7.6 ± 0.3", "unit": "µM"}]}]}
